Data published in patent US4916121A, “Antitumor composition comprising pyrimidine type nucleic acid derivative and 1-[(2-hydroxyethoxy)methyl]uracil derivative” (Teijin Limited, priority 1985, dated 1990).
Like-named read-outs stand apart in the source and are kept apart here. Each block holds one compound with its values, some of them ahead of it.

Assays:
[1] = Enzymatic hydrolyzability in rat duodenum epithelial homogenate; type: in vitro ADME; conditions: rat duodenum epithelial homogenate 1% w/v, pH 7.0, 37° C.
Protocol: The hydrolysis rates of the compounds of the present invention were measured at 37° C. in rat duodenum epithelial homogenate (1%, w/v; pH 7.0).

[2] = Hydrophilic properties: retention time in normal phase HPLC (Nucleosil 5CN); type: physicochemical; conditions: n-hexane:ethanol = 88:12, 1.2 ml/min, index of hydrophilic properties
Protocol: The retention times of the compounds of the present invention in normal phase system high performance liquid chromatograph (Nucleosil) 5 CN column were measured.

[3] = Inhibition of pyrimidine nucleoside phosphorylase activity in beagle small intestine homogenate (decomposition of 5-fluoro-2'-deoxyuridine); type: biochemical; conditions: dog, small intestine homogenate, pH 7
Protocol: (§1) Inhibitory effects of 1-[(2-hydroxyethoxy)methyl]-5-methyluracil, 1-[(2-hydroxyethoxy)methyl]-5-fluoro-uracil, 1-[(2-hydroxyethoxy)methyl]-5-bromouracil on pyrimidine nucleoside phosphorylase activity in the small intestine homogenates of an SD-strain male rat and a male beagle were assayed with a lowering in decomposition rate of 5-fluoro-2'-deoxyuridine (concentration: 0.025 mM) and compared with the same effects of thymidine and deoxyuridine.

[4] = tested on: pyrimidine nucleoside phosphorylase; assay: as above; type: biochemical; conditions: for Half-life of 5-fluoro-2'-deoxyuridine in presence of inhibitor / Inhibitory percentage: 0.4% w/v beagle small intestine homogenate, pH 7.0, 37° C.
Protocol: as §1

[5] = molecular target: T1, pyrimidine nucleoside phosphorylase (Rattus norvegicus, UniProt F7F0D5); assay: Inhibition of pyrimidine nucleoside phosphorylase activity in rat small intestine homogenate (decomposition of 5-fluoro-2'-deoxyuridine); type: biochemical, SD-strain rat
T1 construct: small intestine homogenates of an SD-strain male rat and a male beagle; from tissue; host or cells: small intestine homogenate of SD-strain male rat
Protocol: as §1

[6] = tested on: thymidine phosphorylase; assay: Inhibition of thymidine phosphorylase activity and enzymatic stability in small intestine; type: biochemical; conditions: rat and beagle small intestine
Protocol: as §1

[7] = molecular target: T1, pyrimidine nucleoside phosphorylase; assay: Inhibition of pyrimidine nucleoside phosphorylase activity in rat small intestine homogenate (decomposition of 5-fluoro-2'-deoxyuridine); type: biochemical, SD-strain rat; conditions: inhibitor 0.025 mM; 0.09% w/v rat small intestine homogenate, pH 7.0, 37° C.
[8] = Inhibition of pyrimidine nucleoside phosphorylase activity in beagle small intestine homogenate (decomposition of 5-fluoro-2'-deoxyuridine); type: biochemical; conditions: dog; inhibitor 0.025 mM; 0.4% w/v beagle small intestine homogenate, pH 7.0, 37° C.
[9] = tested on: mouse leukemia L1210; assay: Antitumor effect on mouse leukemia L1210 (increase in life span), oral administration; type: in vivo; conditions: days 1, 3, 5
Text: The antitumor effect for mouse leukemia L1210 by a simultaneous oral administration of the compounds of the present invention 3',5'-didodecanoyl-5-fluoro-2'-deoxyuridine and 1-[[2-(octadecanoyloxy)ethoxy]methyl]-5-methyluracil was compared with those of (a) 5-fluoro-2'-deoxyuridine alone, (b) 3',5'-didodecanoyl-5-fluoro-2'-deoxyuridine alone, and (c) a simultaneous oral administration of 3',5'-didodecanoyl-5-fluoro-2'-deoxyuridine and 1-[(2-hydroxyethoxy)methyl]-5-methyluracil.
10^5 ascite tumor cells of mouse leukemia L1210 7 days after transplantation were transplanted intraperioneally into mouse (.male.8 weeks, Ca 25-26 g, 5 mice/group) and provided for experiments. 24 hours after transplantation of the tumor cells, the pharmaceuticals were administered orally three times on day 1, day 3 and day 5.
The antitumor effect of the pharmaceuticals were shown by the increase in life span (ILS) of the group administered with pharamaceuticals relative to the control group (with no pharmaceutical administered) (line extension %).

[10] = Lipid solubility: retention time in reversed phase HPLC (Lichrosorb RP-18); type: physicochemical; conditions: RP-18 4.0 × 130 mm, 1.2 ml/min, index of lipid solubility
Protocol: The retention time of the compounds of the present invention in reversed phase system high performance liquid chromatograph (Lichrosorb RP-18 column) was measured in two kinds of solvent systems.

[11] = tested on: pyrimidine nucleoside phosphorylase; conditions: cited from earlier work
[12] = tested on: established cell line derived from a mouse; conditions: same molar concentration, in vitro; cited from earlier work
[13] = rat, small intestine homogenate, pH 7
[14] = inhibitor 0.025 mM, 0.09% w/v rat small intestine homogenate, pH 7.0, 37° C.
[15] = pH 7, read-out: Inhibitory percentage
[16] = inhibitor 0.025 mM, 0.09% w/v rat small intestine homogenate, pH 7.0, 37° C., read-out: Inhibitory percentage

T1 sequence (F7F0D5 1-312): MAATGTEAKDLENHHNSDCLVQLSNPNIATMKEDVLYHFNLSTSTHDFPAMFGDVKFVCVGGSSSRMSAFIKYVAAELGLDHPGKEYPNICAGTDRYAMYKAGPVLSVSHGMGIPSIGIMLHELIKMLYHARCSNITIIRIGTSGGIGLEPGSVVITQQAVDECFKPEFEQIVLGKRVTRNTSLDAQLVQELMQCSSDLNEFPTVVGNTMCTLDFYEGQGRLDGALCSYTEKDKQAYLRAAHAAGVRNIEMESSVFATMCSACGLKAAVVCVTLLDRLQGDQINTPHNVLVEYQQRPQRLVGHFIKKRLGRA

Compound: CCCCCCCCCCCCCC(=O)OC[C@H]1O[C@@H](n2cc(F)c(=O)[nH]c2=O)C[C@@H]1OC(=O)CCCCCCCCCCCCC [3'5'-ditetradecanoyl-5-fluoro-2'-deoxyuridine]
Hydrolysis rate constant [1]: 0.027 min.^-1
Retention time [2]: 5.38 min

Compound: Cc1cn([C@H]2C[C@H](O)[C@@H](CO)O2)c(=O)[nH]c1=O [Thymidine, reference compound]
inhibitory activity against thymidine phosphorylase (in words) [6]: more potenty inhibited by thymidine than by deoxyuridine
Half-life of 5-fluoro-2'-deoxyuridine in presence of inhibitor ([4]; inhibitor 0.025 mM): 0.968 h
Inhibitory percentage ([4]; inhibitor 0.025 mM): 52.2%
half-life at 25 µM [7]: 1.48 h
Half-life of 5-fluoro-2'-deoxyuridine in presence of inhibitor [5, 14]: 0.51 h
inhibition at 25 µM [5, 15]: 44.4%
half-life at 25 µM [8]: 0.45 h

Compound: O=c1[nH]c(=O)n([C@H]2C[C@H](O)[C@@H](CO)O2)cc1F [5-Fluoro-2'-deoxyuridine, 5-fluoro-2'-deoxyuridine, reference compound]
Half-life of 5-fluoro-2'-deoxyuridine ([4]; dog, small intestine homogenate, 25 µM, pH 7): 0.463 h
ILS ([9]; 10 mg/kg/one dose alone): 15%
ILS ([9]; 30 mg/kg/one dose alone): 10%
ILS ([9]; 100 mg/kg/one dose alone): 15%
ILS ([9]; 300 mg/kg/one dose alone): 10%
half-life in blood (in words) ([11]; after administration in living bodies): shorter half-life in blood
decomposition by pyrimidine nucleoside phosphorylase (in words) ([11]; living bodies): rapidly decomposed
Half-life of 5-fluoro-2'-deoxyuridine ([5]; rat, small intestine homogenate, 25 µM, pH 7): 0.283 h
antitumor activity relative to 5-fluorouracil [12]: 100 fold

Compound: O=c1ccn([C@H]2C[C@H](O)[C@@H](CO)O2)c(=O)[nH]1 [Deoxyuridine, reference compound]
half-life at 25 µM [3]: 0.538 h
Half-life of 5-fluoro-2'-deoxyuridine in presence of inhibitor ([4]; inhibitor 0.025 mM): 0.508 h
Inhibitory percentage ([4]; inhibitor 0.025 mM): 8.8%
Half-life of 5-fluoro-2'-deoxyuridine in presence of inhibitor [5, 14]: 0.37 h
inhibition at 25 µM [5, 15]: 23.4%
half-life at 25 µM [5, 13]: 1.1 h

Compound: CCCCCCCCCCCC(=O)OC[C@H]1O[C@@H](n2cc(F)c(=O)[nH]c2=O)C[C@@H]1OC(=O)CCCCCCCCCCC [3'5'-didodecanoyl-5-fluoro-2'-deoxyuridine]
ILS ([9]; 10 mg/kg/one dose alone): 0%
ILS ([9]; 30 mg/kg/one dose alone): 5%
ILS ([9]; 100 mg/kg/one dose alone): 15%
ILS ([9]; 300 mg/kg/one dose alone): 40%
Retention time (b) Acetonitrile:acetic acid (999:1) [10]: 3.00 min
Retention time (a) Acetonitrile:water (19:1) [10]: 3.96 min

Compound: CCCCCCCCCCCCCCCCCC(=O)OCCOCn1cc(C)c(=O)[nH]c1=O [1-[[2-(octadecanoyloxy)ethoxy]methyl]-5-methyluracil]
ILS ([9]; 450 mg/kg/one dose alone): 12%

Compound: CCCCCCCCCCCCCCCCCCCC(=O)OCCOCn1cc(C)c(=O)[nH]c1=O [1-[[2-(eicosanoyloxy)-ethoxy]-methyl]-5-methyluracil]
Hydrolysis rate constant [1]: 0.052 min.^-1
Retention time [2]: 5.48 min

Now from value to compound, other results behind:

half-life at 10 µM [3]: > 16.7 h
Half-life of 5-fluoro-2'-deoxyuridine in presence of inhibitor ([4]; inhibitor 0.01 mM): 1.04 h
Inhibitory percentage ([4]; inhibitor 0.01 mM): 55.5%
Half-life of 5-fluoro-2'-deoxyuridine in presence of inhibitor ([5]; inhibitor 0.01 mM, 0.09% w/v rat small intestine homogenate, pH 7.0, 37° C.): 0.542 h
inhibition at 10 µM ([5]; inhibitor 0.01 mM, 0.09% w/v rat small intestine homogenate, pH 7.0, 37° C., read-out: Inhibitory percentage): 47.7%
half-life at 10 µM [5, 13]: > 16.7 h
Compound: O=c1[nH]c(=O)n(COCCO)cc1Br [1-[(2-hydroxyethoxy)methyl]-5-bromouracil]

half-life at 25 µM [3]: > 16.7 h
Half-life of 5-fluoro-2'-deoxyuridine in presence of inhibitor ([4]; inhibitor 0.025 mM): 1.42 h
Inhibitory percentage ([4]; inhibitor 0.025 mM): 67.3%
Half-life of 5-fluoro-2'-deoxyuridine in presence of inhibitor [5, 14]: 1.677 h
inhibition at 25 µM [5, 16]: 83.1%
half-life at 25 µM [5, 13]: > 16.7 h
Compound: Cc1cn(COCCO)c(=O)[nH]c1=O [1-[(2-hydroxyethoxy)methyl]-5-methyluracil]
ILS ([9]; 200 mg/kg/one dose alone): 12%

Retention time (b) Acetonitrile:acetic acid (999:1) [10]: 3.15 min
Retention time (a) Acetonitrile:water (19:1) [10]: 3.53 min
Compound: CCCCCCCCCCCCCCCC(=O)OCCOCn1cc(C)c(=O)[nH]c1=O [1-[[2-(Hexadecanoyloxy)-ethoxy]-methyl]-5-methyluracil]

half-life at 25 µM [3]: > 16.7 h
Half-life of 5-fluoro-2'-deoxyuridine in presence of inhibitor ([4]; inhibitor 0.025 mM): 0.78 h
Inhibitory percentage ([4]; inhibitor 0.025 mM): 40.6%
Half-life of 5-fluoro-2'-deoxyuridine in presence of inhibitor [5, 14]: 0.823 h
inhibition at 25 µM [5, 16]: 65.6%
half-life at 25 µM [5, 13]: > 16.7 h
Compound: O=c1[nH]c(=O)n(COCCO)cc1F [1-[(2-hydroxyethoxy)methyl]-5-fluorouracil]
